Results reported in patent US20090270359A1, “SUBSTITUTED PYRAZOLE DERIVATIVES” (TAKEDA PHARMACEUTICAL COMPANY LIMITED, priority 2007, published 2009).
Substitutions are numbered along the chain they refer to.

Assays:
[1] = system: Human prostate cancer cells LNCaP-FGC; assay: Prostate specific antigen (PSA) production inhibition test in prostate cancer cells; assay type: cell-based; details: Homo sapiens, 72 h; compound 1 μM; testosterone 0.1 ng/m; PSA in culture supernatant after 3 days by ELISA; testosterone non-addition group 100%, addition group 0%; read-out: Inhibitory rate (%) at 1 μM (PSA production suppression rate)
Description: Human prostate cancer cells LNCaP-FGC were plated in a 24 well plate at 40000 cells/1000 μL/well, and testosterone (final concentration 0.1 ng/m) and the compound (1 μM) were added the next day. The concentration of PSA in the culture supernatant after 3 days from the addition was measured by ELISA, and the PSA production suppression rate was calculated with the testosterone non-addition group as 100% and the testosterone addition group as 0%.

[2] = target: T1, LNCaP type mutant androgen receptor (AR) (Homo sapiens, UniProt P10275, T878A); assay: AR-binding inhibition test, LNCaP type (radio-labeled Mibolerone displacement); details: compound 1 μM; 3 nM radio-labeled Mibolerone; 4° C., 3 hours; dextran/charcoal method; read-out: Inhibitory rate (%) at 1 μM, LNCaP type
T1 sequence (P10275 1-920 T878A): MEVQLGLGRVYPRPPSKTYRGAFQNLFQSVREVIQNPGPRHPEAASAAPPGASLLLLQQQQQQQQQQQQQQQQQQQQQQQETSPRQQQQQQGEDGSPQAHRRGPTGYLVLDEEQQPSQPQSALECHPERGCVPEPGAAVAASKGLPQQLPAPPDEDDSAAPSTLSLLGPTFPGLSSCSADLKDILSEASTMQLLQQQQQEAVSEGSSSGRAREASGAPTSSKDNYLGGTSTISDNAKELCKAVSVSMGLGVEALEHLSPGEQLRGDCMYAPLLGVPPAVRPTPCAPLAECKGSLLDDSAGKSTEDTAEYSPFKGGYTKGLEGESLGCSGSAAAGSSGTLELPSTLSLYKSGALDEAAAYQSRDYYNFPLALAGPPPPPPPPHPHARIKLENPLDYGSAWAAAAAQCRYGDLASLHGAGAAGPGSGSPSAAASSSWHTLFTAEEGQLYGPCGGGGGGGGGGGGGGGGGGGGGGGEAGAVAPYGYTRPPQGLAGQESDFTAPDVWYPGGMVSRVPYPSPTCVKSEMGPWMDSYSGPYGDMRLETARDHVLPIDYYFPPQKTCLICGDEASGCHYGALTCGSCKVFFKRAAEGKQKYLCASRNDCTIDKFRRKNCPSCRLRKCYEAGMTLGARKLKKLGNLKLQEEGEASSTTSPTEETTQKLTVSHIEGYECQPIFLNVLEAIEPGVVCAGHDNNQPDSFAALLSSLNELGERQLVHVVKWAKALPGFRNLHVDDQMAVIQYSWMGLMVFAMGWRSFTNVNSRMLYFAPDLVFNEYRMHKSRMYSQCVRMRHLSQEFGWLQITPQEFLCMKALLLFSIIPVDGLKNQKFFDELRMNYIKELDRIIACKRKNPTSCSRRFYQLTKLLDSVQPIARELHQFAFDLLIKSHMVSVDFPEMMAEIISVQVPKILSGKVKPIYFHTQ
Description: (§1) To a solution of wild type or LNCaP type mutant androgen receptor (AR) was added 3 nM radio-labeled Mibolerone and final concentration 1 μM of the compound. The mixture was incubated at 4° C. for 3 hours, and B (Bound) and F (Free) Mibolerones were separated by the dextran/charcoal method. The label count of B was measured and the inhibition rate of the compound was calculated.

[3] = target: T2, wild type androgen receptor (AR) (Homo sapiens, UniProt P10275); assay: AR-binding inhibition test, wild type (radio-labeled Mibolerone displacement); details: compound 1 μM; 3 nM radio-labeled Mibolerone; 4° C., 3 hours; dextran/charcoal method; read-out: Inhibitory rate (%) at 1 μM, wild type
T2 sequence (P10275 1-920): T1 sequence (P10275 1-920 T878A) with A878T
Description: as §1

mutant AR (W741C) = target: T3, mutant AR (W741C) (Homo sapiens, UniProt P10275, W742C); assay: AR transcription inhibition test (luciferase reporter in Cos-7 cells); assay type: cell-based; details: compound 1 μM, 0.1 μM DHT, luciferase activity after 24 hr, relative to control (0.1 μM DHT), read-out: Inhibitory rate (%) of mutant AR at 1 μM
T3 construct: expressed in transfected cells; host or cells: Cos-7
T3 sequence (P10275 1-920 W742C): T1 sequence (P10275 1-920 T878A) with W742C, A878T
Description: Cos-7 cells (5,000,000 cells) were inoculated to a flask, and incubated in a culture medium (DMEM+10% Dextran Charcoal (DCC)−Fetal Bovine Serum (FBS) and 2 mM glutamine) for 24 hours. Then, a vector DNA harboring mutant AR (W741C) and a vector DNA containing a luciferase gene bound at the downstream of an androgen responsive promoter were cotransfected by a liposome method. After 4 hr, the medium was changed and, after culture for 3 hr, DHT (dihydrotestosterone) at the final concentration of 0.1 μM and the compound at the final concentration of 1 μM were added. After further culture for 24 hr, the luciferase activity was measured, and the AR transcription inhibitory activity of the compound was examined.

inhibition at 1 µM [2]: 72% | inhibition at 1 µM [3]: 71% | inhibition at 1 µM (mutant AR (W741C)): 36%
SMILES: Cc1nn(Cc2ccc(C(N)=O)cc2)c(C)c1-c1ccc(C#N)c(Cl)c1F [Example 337, 4-{[4-(3-chloro-4-cyano-2-fluorophenyl)-3,5-dimethyl-1H-pyrazol-1-yl]methyl}benzamide]
inhibition at 1 µM [1]: 104%
